Data taken from the supplement of paper PMC10307832.

compound: COc1cccc2c1C(=O)c1c(O)c3c(c(O)c1C2=O)C[C@@](O)(C(=O)CO)C[C@@H]3O[C@H]1C[C@H](N)[C@H](O)[C@H](C)O1 [Doxorubicin] + CC(=O)Nc1cccc(-n2c(=O)n(C3CC3)c(=O)c3c(Nc4ccc(I)cc4F)n(C)c(=O)c(C)c32)c1 [Trametinib] (partner 0.02 µM); assay: relative viability (nuclei count vs DMSO), 5 days (fraction); higher = more cells survive; settings: first compound 0.1 µM
In short: (§1)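 Values are medians from duplicate plates. Each reflects relative viability, defined as the nuclei count of treated wells over that of vehicle wells. Lung cancer cell lines in 1536-well plates were pin-tool dosed one day after seeding with one drug alone or with a fixed anchor-drug dose plus five library-drug doses (not always all listed) in √10 steps, then fixed, stained and imaged at 4× after 5 days.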

| Cell Line | relative viability |
| --- | --- |
| NCI-H460 | 0.0041 |

compound: COc1cccc2c1C(=O)c1c(O)c3c(c(O)c1C2=O)C[C@@](O)(C(=O)CO)C[C@@H]3O[C@H]1C[C@H](N)[C@H](O)[C@H](C)O1 [Doxorubicin] + C[C@]1(O)C[C@@H](c2nc(-c3ccc4ccc(-c5ccccc5)nc4c3)c3c(N)nccn32)C1 [Linsitinib] (partner 1 µM); assay: as above; settings: first compound 0.001 µM
In short: as §1

| Cell Line | relative viability |
| --- | --- |
| LU99A | 0.521 |
| NCI-H358 | 0.756 |
| NCI-H322M | 0.986 |
| LXF-289 | 0.997 |
| BEN | 0.984 |
| HARA | 0.974 |
| HCC-827 | 0.922 |
| NCI-H520 | 0.888 |
| NCI-H2023 | 0.642 |
| A-427 | 1.11 |
| NCI-H647 | 0.977 |
| PC-3 [JPC-3] | 1.01 |
| NCI-H1755 | 0.971 |
| NCI-H650 | 1.01 |
| NCI-H3122 | 1.05 |
| NCI-H441 | 0.697 |
| NCI-H1395 | 1.03 |
| 201T | 1 |
| NCI-H1975 | 1.09 |
| HOP-62 | 0.954 |
| NCI-H1355 | 0.793 |
| NCI-H838 | 1.04 |
| CAL-12T | 0.783 |
| NCI-H1666 | 0.803 |
| EPLC-272H | 0.936 |
| NCI-H2347 | 0.978 |
| NCI-H1915 | 1.14 |
| NCI-H1437 | 1 |
| NCI-H460 | 0.714 |

same assay, conditions: first compound 0.003162 µM

| Cell Line | relative viability |
| --- | --- |
| LU99A | 0.645 |
| NCI-H358 | 0.896 |
| NCI-H322M | 0.913 |
| LXF-289 | 0.968 |
| BEN | 0.863 |
| HARA | 1.03 |
| HCC-827 | 0.965 |
| NCI-H520 | 0.986 |
| LOU-NH91 | 0.826 |
| NCI-H2023 | 0.62 |
| A-427 | 1.15 |
| NCI-H647 | 1.17 |
| PC-3 [JPC-3] | 0.992 |
| NCI-H1755 | 0.98 |
| NCI-H650 | 0.753 |
| NCI-H3122 | 0.995 |

| Cell Line | relative viability |
| --- | --- |
| NCI-H441 | 0.718 |
| NCI-H1395 | 1.09 |
| 201T | 0.979 |
| NCI-H1975 | 1.02 |
| HOP-62 | 1.04 |
| NCI-H2405 | 0.938 |
| NCI-H1355 | 0.862 |
| NCI-H838 | 1.04 |
| CAL-12T | 0.858 |
| NCI-H1666 | 0.762 |
| EPLC-272H | 1.45 |
| NCI-H2347 | 0.923 |
| NCI-H1915 | 1.03 |
| NCI-H1437 | 1.13 |
| NCI-H460 | 0.687 |

same assay, conditions: first compound 0.01 µM

| Cell Line | relative viability |
| --- | --- |
| LU99A | 0.526 |
| NCI-H358 | 0.529 |
| NCI-H322M | 0.982 |
| LXF-289 | 0.946 |
| BEN | 0.983 |
| HARA | 0.922 |
| HCC-827 | 0.969 |
| NCI-H520 | 0.826 |
| LOU-NH91 | 0.953 |
| NCI-H2023 | 0.549 |
| A-427 | 1.11 |
| NCI-H647 | 0.952 |
| PC-3 [JPC-3] | 0.94 |
| NCI-H1755 | 1.02 |
| NCI-H650 | 0.949 |
| NCI-H3122 | 1.06 |

| Cell Line | relative viability |
| --- | --- |
| NCI-H441 | 0.513 |
| NCI-H1395 | 1.02 |
| 201T | 0.983 |
| NCI-H1975 | 0.845 |
| HOP-62 | 1.11 |
| NCI-H2405 | 0.887 |
| NCI-H1355 | 0.81 |
| NCI-H838 | 0.952 |
| CAL-12T | 0.762 |
| NCI-H1666 | 0.561 |
| EPLC-272H | 1.4 |
| NCI-H2347 | 0.923 |
| NCI-H1915 | 1.08 |
| NCI-H1437 | 0.965 |
| NCI-H460 | 0.385 |

same assay, conditions: first compound 0.03162 µM

| Cell Line | relative viability |
| --- | --- |
| LU99A | 0.456 |
| NCI-H358 | 0.215 |
| NCI-H322M | 0.974 |
| LXF-289 | 1.04 |
| BEN | 0.621 |
| HARA | 0.798 |
| HCC-827 | 0.921 |
| NCI-H520 | 0.698 |
| LOU-NH91 | 0.73 |
| NCI-H2023 | 0.279 |
| A-427 | 1.17 |
| NCI-H647 | 0.441 |
| PC-3 [JPC-3] | 0.907 |
| NCI-H1755 | 1.05 |
| NCI-H650 | 0.709 |
| NCI-H3122 | 1.06 |

| Cell Line | relative viability |
| --- | --- |
| NCI-H441 | 0.281 |
| NCI-H1395 | 1.11 |
| 201T | 1.06 |
| NCI-H1975 | 0.572 |
| HOP-62 | 1.17 |
| NCI-H2405 | 0.707 |
| NCI-H1355 | 0.872 |
| NCI-H838 | 0.906 |
| CAL-12T | 0.432 |
| NCI-H1666 | 0.268 |
| EPLC-272H | 1.18 |
| NCI-H2347 | 0.889 |
| NCI-H1915 | 1.05 |
| NCI-H1437 | 0.591 |
| NCI-H460 | 0.0347 |

same assay, conditions: first compound 0.1 µM

| Cell Line | relative viability |
| --- | --- |
| LU99A | 0.575 |
| NCI-H358 | 0.176 |
| NCI-H322M | 0.952 |
| LXF-289 | 0.993 |
| BEN | 0.79 |
| HARA | 1.04 |
| HCC-827 | 0.921 |
| NCI-H520 | 0.73 |
| LOU-NH91 | 0.7 |
| NCI-H2023 | 0.102 |
| A-427 | 1.16 |
| NCI-H647 | 0.435 |
| PC-3 [JPC-3] | 0.901 |
| NCI-H1755 | 1.01 |
| NCI-H650 | 0.411 |
| NCI-H3122 | 1 |

| Cell Line | relative viability |
| --- | --- |
| NCI-H441 | 0.513 |
| NCI-H1395 | 0.92 |
| 201T | 1.01 |
| NCI-H1975 | 0.464 |
| HOP-62 | 1.04 |
| NCI-H2405 | 0.519 |
| NCI-H1355 | 0.785 |
| NCI-H838 | 0.446 |
| CAL-12T | 0.48 |
| NCI-H1666 | 0.285 |
| EPLC-272H | 1.13 |
| NCI-H2347 | 0.959 |
| NCI-H1915 | 1.1 |
| NCI-H1437 | 0.28 |
| NCI-H460 | 0.0076 |
